Assay results reported in a melting point compilation (Tetko et al.; mined from patent text by program, amines drawn as free bases though some values may be those of a salt).

Row | melting point [°C] | Compound
1 | 148 to 149 | CCOC(=O)CC(=O)c1cc(F)c(OC)nc1Nc1ccc(F)cc1F
2 | 186 to 188 | COc1cccc2c1oc1c(N)n(C)nc12
3 | 146 to 148 | CC(C)S(=O)(=O)c1ccc2[nH]nc(Nc3nccs3)c2c1
4 | 84 to 86 | Cc1cc(C)cc(COC(=O)[C@H](Cc2ccc3ccccc3c2)NC(=O)OC(C)(C)C)c1
5 | 130 | Cc1cn(C(C)(C)C(=O)N(C)C)nc1-c1cc(Cl)ccc1Cl
6 | 230 to 231 | CCNCC1CCN(c2c(F)cc3c(=O)c(C(=O)O)cn(C(C)C)c3c2F)C1 (stereo not given)
7 | 98 to 99 | NC(=O)C(CCCCCOc1c(Cl)ccc(C=O)c1[N+](=O)[O-])N1CCCCC1 (stereo not given)
8 | 266 to 271 | Oc1cc2c3cc(O)c(O)cc3n(Cc3ccccc3)c2cc1O
9 | 128 to 129 | COc1ccc(OC)c2c1CCC(O)C2 (stereo not given)
10 | 155 to 157 | COc1cc2c(cc1OC)C(C#N)N(C(=O)c1ccccc1)C=C2 (stereo not given)
11 | 102 to 110 | COc1cc(F)ccc1-c1ccc(S(=O)(=O)N2c3ccccc3CC2C(=O)NCCOc2ccc(CC(=O)O)cc2)cc1 (stereo not given)
12 | 99 to 100 | COC(=O)C1=C(C)NC(C(OC)OC)=C(C(=O)OC)C1c1cccc([N+](=O)[O-])c1 (stereo not given)
13 | 77 to 78 | CCOC(=O)c1cc2cc(-c3ccc(OC(F)(F)F)cc3)ccc2n1Cc1ccc(C)cc1
14 | 141 to 143 | COc1ccc(NCC(=O)N2CCC(Cc3ccc(F)cc3)CC2)cc1
15 | 322 to 324 | Cc1cc2c(=O)[nH][nH]c(=O)c2n1Cc1ccccc1
16 | 130 | C=CC(=O)Oc1ccc(C(C)(c2ccc(OC(=O)C=C)cc2)c2ccc(OC(=O)C=C)cc2)cc1
17 | 92 to 94 | COCCOc1ccccc1OCC(O)CN1C(C)CCCC1C (stereo not given)
18 | 131 to 135 | O=C(Cn1nnnc1-c1cc2ccccc2o1)OCCO
19 | 92 to 94 | CC(CC(=O)O)c1ccc(O)cc1O (stereo not given)
20 | 130 | COC(=O)Cc1cc(NC(=O)OC(C)(C)C)c(N)cc1C#Cc1ccccc1
21 | 161 to 164 | CC(C)(C)OC(=O)N1CCC(c2ccc3oc(-c4ccc(C(F)(F)F)cc4)nc3c2)CC1
22 | 46 to 49 | COC(=O)CCCCCOc1ccc(NC(=O)COCc2ccccc2)cc1
23 | 102 to 104 | CC1CCCN(S(=O)(=O)c2ccc(OC(C)C)c(C(=O)O)c2)C1 (stereo not given)
24 | 62 to 65 | COc1ccc(CCCNc2c(C)c(C)c3c(c2C)C(c2ccc(C(C)C)cc2)C(C)(C)O3)cc1 (stereo not given)
25 | 124 to 126 | CCOC(=O)ON(C(N)=O)[C@H]1C[C@@H](c2ccc(F)cc2)C1
26 | > 300 | COC(=O)c1cc2ccnc(N)c2[nH]1
27 | 77 to 78 | COC(=O)c1ccc2cccc(OS(=O)(=O)C(F)(F)F)c2n1
28 | 143 to 144 | O=CNCC1CCCc2cc(NS(=O)(=O)c3cccc(F)c3)ccc21 (stereo not given)
29 | 111 to 113 | CNC(=O)c1ccccc1Sc1ccc(F)cc1[N+](=O)[O-]
30 | 185 | Cc1ccc(C(=O)C2=C(O)C(=O)N(c3ccc(C)nn3)C2c2ccc(N3CCN(CCN(C)C)CC3)cc2)cc1 (stereo not given)

The next lines start with the compound.

Row | Compound | melting point [°C]
31 | Oc1c2c(nn1-c1nc3ccccc3[nH]1)CCc1ccccc1-2 | 205 to 206
32 | CCOC(=O)NC(=NCCCCc1ccccn1)NCCCc1c[nH]cn1 | 92 to 94
33 | CN(C)CCCN1N=C2C(=Cc3ccccc3)CS(=O)CC2C1c1ccccc1 (stereo not given) | 155 to 160
34 | CC(O)Cn1cncn1 (stereo not given) | 110 to 112
35 | Nc1c(-c2ccc(C(F)(F)F)cc2)nc2ccc(F)cc2c1C(=O)O | 260 to 262
36 | Clc1cccc(CNc2ncc(Cc3ccncc3)c3ccccc23)c1 | 141 to 142
37 | CNC(=O)c1ccc(F)c2c1CC(N(CCCc1c[nH]c3ccc(F)cc13)C1CCC1)CO2 (stereo not given) | 132
38 | CC(=O)c1c2c(cc3c1CCC3)CCC2 | 69.1 to 76.1
39 | NC(=O)NC1(C(=O)O)CCCc2ncc(Cl)cc21 (stereo not given) | 188 to 190
40 | COc1cc2c(NC3CCCC3)c(C#N)cnc2cc1F | 162 to 164
41 | O=C(NCCNCc1cc2cc(OCc3ccccc3)ccc2o1)C12CC3CC(CC(C3)C1)C2 | 169 to 170
42 | O=C1C(O)=C(CC2CCCC(C(F)(F)F)C2)C(=O)c2ccccc21 (stereo not given) | 142
43 | CC(C)c1nn(-c2ccccn2)c(-c2ccc(F)cc2)c1/C=C/C=O | 105 to 107
44 | Cc1nonc1-n1cc(C(=O)O)c(=O)c2cc(F)c(F)cc21 | 238 to 241
45 | CCOC(=O)c1c(S(N)(=O)=O)nc2sccn12 | 164 to 166
46 | O=C(O)c1ccc(-c2c3ccccc3nn2Cc2ccc(F)cc2)cc1 | 237 to 239
47 | COc1nc(-c2ccccc2Cl)c2ccsc2n1 | 172 to 174
48 | Cc1cccc(C2=CCN(CCCn3c(=O)[nH]c4cccc(C)c4c3=O)CC2)c1 | 155 to 160
49 | CC12CCC3C(CCC4CC(O)CCC43C)C1CCC2C#N (stereo not given) | 156 to 158
50 | Cc1nnc(C(=O)CCCCCCOc2ccc(OCc3ccccc3)cc2)o1 | 118 to 120
51 | CC(c1ccccc1)n1c(N)c(C#N)c2c1CCCC2 (stereo not given) | 129
52 | Nc1ccc(-c2ccc(-c3ccc(N)cc3)o2)cc1 | 213 to 216
53 | CC(C)(COc1ccc2nccn2n1)CS(N)(=O)=O | 165 to 167

Row | Compound | melting point [°C]
54 | c1ccc(CN2CCC(NC3CCOCC3)CC2)cc1 | 60
55 | Oc1ccc(-c2noc3c(Br)cc(O)cc23)cc1 | 267 to 270
56 | Cc1cc(O)nc(SCC(N)=O)n1 | 238 to 240
57 | c1csc(-c2cnc(COc3ccc(CCCCn4ccnc4)cc3)o2)c1 | 136 to 138
58 | CCn1c2c(c3ccccc3c1=O)C(=O)c1ccccc1-2 | 188 to 189
59 | O=S(=O)(c1ccccc1)n1ccc2c(CO)cccc21 | 89 to 91
60 | CCOC(Cc1ccc(OCCCc2nc(-c3ccc(C(F)(F)F)cc3)oc2C)c2ccsc12)C(=O)O (stereo not given) | 112 to 114
61 | C=CCN1C(=O)c2cccc3c(N(C)CCO)ccc(c23)C1=O | 90 to 91
62 | Clc1cccc2c1sc1ncnn12 | 203
63 | Nc1nc2ccccc2c2c1nc1n2C(CCl)COC1 (stereo not given) | 230 to 232
64 | CC(C#N)c1cc(O)cc2cc(-c3ccc(O)cc3)oc12 (stereo not given) | 183 to 185
65 | Clc1cc(Cl)cc(CC(Cl)CC(Cl)(Cl)Cl)c1 (stereo not given) | 44.5 to 46.5
66 | N#CC(=NO)c1cc(F)ccc1F | 64 to 67
67 | CCCc1nc2c(N)nc(C)c(C)c2n1CCCCN(O)C(C)=O | 164 to 166
68 | CCCCc1nc2c(N)nc3cccnc3c2n1CCNC(=O)c1c(C)noc1C | 188 to 189
69 | NS(=O)(=O)c1ccc(-n2nc(C(F)(F)F)cc2-c2ccc(Cl)cc2Cl)cc1 | 153 to 155
70 | COCCC(=O)N[C@H]1CC[C@H](CCN2CCN(c3nccc4c3OCC4)CC2)CC1 | 180
71 | COC(=O)CCCCCOC1OC(CO)C(O)C(O)C1NC(C)=O (stereo not given) | 154 to 155
72 | c1cn(Cc2ccc3[nH]c(C4CC4)nc3c2)cn1 | 184
73 | CCc1ccc(-c2nnc(N3CCC(O)CC3)nc2-c2ccc(CC)cc2)cc1 | 164 to 166
74 | CCCN(CCC)CCc1ccc(O)c2nc[nH]c12 | 135 to 139
75 | O=C1c2c(O)ccc(O)c2C(=O)c2c(NCCN3CCOCC3)ccc(NCCN3CCOCC3)c21 | 241 to 243
